From publication PMC6383986, “Fragment-Based Covalent Ligand Screening Enables Rapid Discovery of Inhibitors for the RBR E3 Ubiquitin Ligase HOIP” (Journal of the American Chemical Society, 2019)
Entries after “also recorded” stand apart in the source; their conditions may differ.

How the values were obtained:
HOIP RBR domain = molecular target: T1, HOIP RBR domain (Homo sapiens, UniProt Q96EP0); assay: In vitro polyubiquitination assay; assay type: biochemical; conditions: HOIP RBR preincubated with compound (200 μM) overnight; E2 UbcH7 or UbcH5c; vs DMSO
T1 construct: made in house; host or cells: E. coli BL21-GOLD(DE3)
T1 sequence (Q96EP0 697-1072): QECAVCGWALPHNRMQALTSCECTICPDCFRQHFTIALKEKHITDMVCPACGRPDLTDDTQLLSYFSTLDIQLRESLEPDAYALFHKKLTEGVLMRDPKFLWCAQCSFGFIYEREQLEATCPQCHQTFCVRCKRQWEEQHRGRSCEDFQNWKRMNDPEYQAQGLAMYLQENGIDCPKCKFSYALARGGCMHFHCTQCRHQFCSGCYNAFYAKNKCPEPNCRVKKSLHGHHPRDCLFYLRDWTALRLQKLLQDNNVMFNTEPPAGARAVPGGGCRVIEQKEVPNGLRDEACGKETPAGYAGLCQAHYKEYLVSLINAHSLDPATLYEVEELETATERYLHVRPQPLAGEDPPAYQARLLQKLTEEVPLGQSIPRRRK
Method: 4.3 Polyubiquitination assay
The ubiquitination assay was essentially carried out as previously described.12 The HOIP RBR domain was pre-incubated with compounds (5) or (6), or DMSO in 50 mM HEPES, 150 mM NaCl, pH 7.5 buffer at 23 °C with gentle shaking for overnight (20-24 h). E1, E2 (UbcH7 or UbcH5c), ubiquitin, and MgCl2 were added to each vial, and aliquots of 15 µL were withdrawn to mark time zero. ATP was then added and aliquots of 15 µL were withdrawn after 5, 15, 30, and 60 min incubation. Final concentrations: E1 (1 µM), E2 (5 µM), E3 (5 µM), compounds (200 µM), DMSO (1%), ubiquitin (40 µM), MgCl2 (20 mM), ATP (10 mM); reaction volume 100 µL. The aliquots were analyzed by SDS PAGE (Figure 4A and Supplementary Figure S9) as described below (section

[1] = test system: HEK293T cells overexpressing full-length HOIP, HOIL-1L, and SHARPIN; assay: CellTiter-Glo Luminescent cell viability assay, transfected cells; assay type: cell-based; conditions: 17 h
Method: Thurston, Imperial College London. 2.3 × 10^6 cells were seeded into 100 mm Petri dishes in DMEM media supplemented with 10% v/v FBS (Biosera) and 1% v/v L-glutamine/penicillin/streptomycin (Sigma-Aldrich) and incubated at 37 °C overnight. The following morning the cells were transfected using either 6 µg pcDNA3 or 4.5 µg HOIP, 0.3 µg HOIL-1L and 1.2 µg SHARPIN as well as 450 ng pRDII Luc and 180 ng pRLTK (Promega) plasmids. 7 h after transfection, the cells were trypsinized and re-suspended in DMEM media supplemented with 1% v/v FBS (Biosera) and 1% v/v L-glutamine/penicillin/streptomycin (Sigma-Aldrich). […]
Reporter assays: After incubating the plates for 17 h, Firefly and Renilla Luciferase activity was analyzed using the Dual-Luciferase® Reporter Assay System (Promega) and a BertholdTech […]
with Mikrowin 2000 software version 4.41: using its injectors to inject 100 µL LAR II and 100 µL Stop&Glo (see manufacturer’s instructions; Promega #E1960). NF-κB regulated luciferase activity was first normalized to Renilla luciferase activity and then the fold activation relative to cells transfected with empty vector calculated. […]
Cell viability assays: After incubating the plates for 17 h in the presence of compound, cell viability was determined using the CellTiter-Glo® Luminescent Cell Viability Assay according to manufacturer’s instructions (Promega #G7571). […]

Row | Structure (SMILES) | polyubiquitin chain formation (HOIP RBR domain) | effect on cell viability [1]
1 | COC(=O)/C=C/CNC(=O)c1cc2c([nH]c1=O)CCC2 [Compound 5] | fully abolished chain formation; also recorded: complete inhibition of polyubiquitin chain formation | –
2 | COC(=O)/C=C/CNC(=O)c1cc2c([nH]c1=O)CCCC2 [Compound 11a] | – | neither compound had any effect on cell viability
